According to ChEMBL document CHEMBL1150780, “Duocarmycin-based prodrugs for cancer prodrug monotherapy” (Bioorg Med Chem, 2008):

Tests used:
[1] = tested on: A549; experiment: Cytotoxicity against human A549 cells after 24 hrs visualized by Lofflers methylene blue by colony forming assay; format: functional, cell-based
[2] = tested on: A549; experiment: Cytotoxicity against human A549 cells after 24 hrs visualized by Lofflers methylene blue by colony forming assay in presence of beta-D-glucuronidase; format: functional, cell-based
[3] = tested on: A549; experiment: Ratio of IC50 for human A549 cells to IC50 for human A549 cells in presence of beta-D-glucuronidase; format: functional

Compound	IC50 [1]	IC50 [2]	Ratio IC50 [3]
C[C@@H](Cl)[C@@H]1CN(C(=O)c2cc3cc(OCCN(C)C)ccc3[nH]2)c2cc(O[C@@H]3O[C@H](C(=O)O)[C@@H](O)[C@H](O)[C@H]3O)c3ccccc3c21	610 nM	0.9 nM	700
COC(=O)[C@H]1O[C@@H](Oc2cc3c(c4ccccc24)[C@H]([C@@H](C)Cl)CN3C(=O)c2cc3cc(OCCN(C)C)ccc3[nH]2)[C@H](O)[C@@H](O)[C@@H]1O	3300 nM	2.1 nM	1600
